# According to patent US9517254B2, “Treatment regimens” (S1 Biopharma, Inc., priority 2012, dated 2016):
# Several values for one entry are separate records, joined by “and”; a condition that tells them apart may be missing. Equal values may be shown once. Numbered stars: 1 amine (or outer) side, 2 acyl side, 3 side chain; on linkers, the order of the positions; unused ones are H or OH. Bridge positions count the residues as written; N and C are the ends. Square brackets hold non-standard residues; d marks the D form. Peptide text beside a SMILES is read from it. X1 = O=C(c1ccc(O)cc1)[C@H](N[*:1])C(=O)[*:2]
# Tests used:
# [1] = test system: healthy volunteer; experiment: Patient's global impression of improvement (PGI) for sexual events (arousal, orgasm, overall satisfaction), same single-volunteer study; assay type: in vivo, human
# [2] = test system: healthy volunteer; experiment: Daily sexual desire score (0-2) in a single volunteer given four sequential 4-week treatments; assay type: in vivo, human; conditions: for sexual desire response: 4 weeks of treatment; for sexual desire, comparison of bupropion alone with trazodone alone: 4 weeks each
# Description: A healthy volunteer in a stable marital relationship for two years with no current sexual disorders, exposed themself sequentially to four treatments, each for 4 weeks: (1) Treatment B: Instant-release (IR) Bupropion (Bup) 150 mg in the morning and 100 mg in the evening; (2) Treatment T: IR trazodone (Trz) 50 mg t.i.d.; (3) Treatment Llow, IR Trz 25 mg b.i.d. plus IR Bup 150 mg in the morning and 100 mg in the evening; and (4) Treatment Lhigh, IR Trz 50 mg t.i.d. plus IR Bup 75 mg t.i.d. A washout of 1-4 weeks occurred between each treatment.
# The test used for the desire score was a two-tailed paired t test, using all scores within a given treatment as repeated measures. […] Both were from the website graphpad.com.* *http://graphpad.com/quickcalcs/chisquared1.cfm
# [3] = test system: men; conditions: 24 IU intranasal, placebo-controlled; cited from earlier work
# [4] = test system: patients; conditions: transnasal, three patients; cited from earlier work
# [5] = wks 1-2, arousal, orgasm, overall satisfaction
Structure (SMILES),"PGI Improved for Sexual Events, Sum of 3 domains, % improved ([1]; total, all four weeks) [%]","PGI Improved for Sexual Events, Sum of 3 domains, n/N ([1]; total, all four weeks)","PGI Improved for Sexual Events, Sum of 3 domains, % improved ([1]; wks 1-2) [%]","PGI Improved for Sexual Events, Sum of 3 domains, n/N [1, 5]","PGI Improved for Sexual Events, Sum of 3 domains, % improved ([1]; wks 3-4) [%]","PGI Improved for Sexual Events, Sum of 3 domains, n/N ([1]; wks 3-4)",sexual desire response [2],"0-2 Daily Desire Score, mean ± SD ([2]; total, all four weeks)","0-2 Daily Desire Score, mean ± SD ([2]; wks 1-2)","0-2 Daily Desire Score, % of max. ([2]; wks 1-2, max. = 28) [%]","0-2 Daily Desire Score, total ([2]; wks 1-2, max. = 28)","0-2 Daily Desire Score, % of max. ([2]; wks 3-4, max. = 28)","0-2 Daily Desire Score, total ([2]; wks 3-4, max. = 28)",also measured
"O=c1n(CCCN2CCN(c3cccc(Cl)c3)CC2)nc2ccccn12 [Trz, 2-{3-[4-(3-chlorophenyl)piperazin-1-yl]propyl}[1,2,4]triazolo[4,3-a]pyridin-3(2H)-one]",20,6/30,25,3/12,17,3/18,low,0.07 ± 0.38,0.14 ± 0.53,7,2,"0, 0%","0, 0%","0-2 Daily Desire Score, % of max. ([2]; total, all four weeks): 4%; 0-2 Daily Desire Score, total ([2]; total, all four weeks): 2"
"CC[C@H](C)[C@@H]1NC(=O)[C@H](C(=O)c2ccc(O)cc2)NC(=O)[C@@H](N)CSSC[C@@H](C(=O)N2CCC[C@H]2C(=O)N[C@@H](CC(C)C)C(=O)NCC(N)=O)NC(=O)[C@H](CC(N)=O)NC(=O)[C@H](CCC(N)=O)NC1=O [OT, 1-({(4R,7S,10S,13S,16S,19R)-19-amino-7-(2-amino-2-oxoethyl)-10-(3-amino-3-oxopropyl)-16-(4-hydroxybenzoyl)-13-[(1S)-1-methylpropyl]-6,9,12,15,18-pentaoxo-1,2-dithia-5,8,11,14,17-pentaazacycloicosan-4-yl}carbonyl)-L-prolyl-L-leucylglycinamide] (H-C[X1]IQNCPLG-NH2; disulfide 1-6)",–,–,–,–,–,–,–,–,–,–,–,–,–,arousal or orgasm on the Acute Sexual Experiences Scale (ASES) [3]: failed to increase arousal or orgasm; effect on sexual function in case reports [4]: pro-sexual effects
"CC(NC(C)(C)C)C(=O)c1cccc(Cl)c1 (racemic) [Bup, (±)-2-(tert-Butylamino)-1-(3-chlorophenyl)propan-1-one]",20,6/30,27,4/15,13,2/15,intermediate,0.82 ± 0.55,0.65 ± 0.74,32,9,50%,14,"arousal, % of sexual events improved ([1]; third and fourth weeks of use): 0%; arousal, % of sexual events improved ([1]; total for all four weeks): 20%; arousal, % of sexual events improved ([1]; weeks 1-2): 40%; arousal, sexual events improved, n/N ([1]; weeks 1-2): ⅖; PGI Improved for Sexual Events, Sum of 3 domains, % improved ([1]; wks 3-4, listed as B): 20% and 13%; sexual desire, comparison of bupropion alone with trazodone alone ([2]; listed as B): markedly superior to T; sexual desire, comparison of bupropion alone with trazodone alone ([2]; listed as Treatment B): superior to Treatment T"
